The values that follow are results of earlier work, collected in patent US20230416797A1, “MODULATING ANTIMICROBIAL PEPTIDE HALF-LIFE” (Syngulon SA., priority 2020, published 2023).

One data set deals with Candida species. The note with it: against Candida species; Shekh and Roy (2012).
The test system of data set [1] is fungal microbial organism. The note with it: from B. subtilis; Zuber et al. (1993), Shenin et al. (1995).
The test system of data set [2] is pathogenic Gram-positive and Gram-negative bacteria. The note with it: against pathogenic Gram-positive and Gram-negative bacteria; Acuña et al. (2012).

For the molecule “WLPPAGLLGRCGRWFRPWLLWLQ SGAQY KWLGNLFGLGPK (WLPPAGLLGRCGRWFRPWLLWLQSGAQYKWLGNLFGLGPK; listed as Enterococcus faecalis) [SEQ ID NO: 1, an Enterococcus faecalis peptide]”, the neutralizing activity entry in the data set with Candida species is “neutralizing activity”.
As to aurin B1, in data set [1], the antifungal activities entry is “antifungal activities”.
Take botrycidin AJ1316: the antifungal activities result in data set [1] is listed as “antifungal activities”.

B1: Ent35-MccV: fusion bacteriocin: N-terminal glycine, Enterocin CRL35, a linker comprising three glycines, and a C-terminal Microcin V (protein)
chain: GKYYGNGVSCNKKGCSVDWGRAIGIIGNNSAANLATGGAAGWKSGGGASGRDIAMAIGTLSGQFVAGGIGAAAGGVAGGAIYDYASTHKPNPAMSPSGLGGTIKQKPEGIPSEAWNYAAGRLCNWSPNNLSDVCL
modifications: Hybrid bacteriocin Ent35-MccV
notes: fusion bacteriocin: N-terminal glycine, Enterocin CRL35, a linker comprising three glycines, and a C-terminal Microcin V
In the case of B1, in data set [2], the antimicrobial activity result is given as “antimicrobial activity”.
